Source: ChEMBL document CHEMBL1150213, “Protein-tyrosine kinase inhibition: mechanism-based discovery of antitumor agents” (J Nat Prod, 1992)
Values after ≈ are worked out from the molar mass of the structure shown.

Key:
[1] = biological target: Tyrosine-protein kinase transforming protein Fps (Fujinami sarcoma virus, UniProt P00530); experiment: Inhibition of Fujinami sarcoma virus pp130fps
[2] = biological target: Insulin receptor (Homo sapiens, UniProt P06213); experiment: Inhibition of insulin receptor
Sequence of Insulin receptor (P06213 28-758 limits assumed): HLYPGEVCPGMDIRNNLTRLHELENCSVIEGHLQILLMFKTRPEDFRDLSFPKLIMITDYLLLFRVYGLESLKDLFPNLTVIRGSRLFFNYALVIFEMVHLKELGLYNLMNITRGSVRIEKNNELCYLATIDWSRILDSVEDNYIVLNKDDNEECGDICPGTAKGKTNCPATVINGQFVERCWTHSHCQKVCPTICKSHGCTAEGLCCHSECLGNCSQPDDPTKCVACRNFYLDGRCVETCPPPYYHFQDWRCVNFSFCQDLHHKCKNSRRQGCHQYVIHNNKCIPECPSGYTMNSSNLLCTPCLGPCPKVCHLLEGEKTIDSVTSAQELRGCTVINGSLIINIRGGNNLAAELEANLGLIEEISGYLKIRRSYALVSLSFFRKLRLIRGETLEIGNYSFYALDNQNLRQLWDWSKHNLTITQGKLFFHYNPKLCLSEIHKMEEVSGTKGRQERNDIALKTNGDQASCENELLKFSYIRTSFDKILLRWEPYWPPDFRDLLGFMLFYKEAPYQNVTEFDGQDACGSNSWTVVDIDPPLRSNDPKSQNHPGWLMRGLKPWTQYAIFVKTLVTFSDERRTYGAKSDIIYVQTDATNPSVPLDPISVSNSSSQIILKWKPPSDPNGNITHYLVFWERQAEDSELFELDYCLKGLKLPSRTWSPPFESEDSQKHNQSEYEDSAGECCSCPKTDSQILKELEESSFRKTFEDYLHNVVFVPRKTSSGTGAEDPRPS
Sequence of Insulin receptor (P06213 763-1382 limits assumed): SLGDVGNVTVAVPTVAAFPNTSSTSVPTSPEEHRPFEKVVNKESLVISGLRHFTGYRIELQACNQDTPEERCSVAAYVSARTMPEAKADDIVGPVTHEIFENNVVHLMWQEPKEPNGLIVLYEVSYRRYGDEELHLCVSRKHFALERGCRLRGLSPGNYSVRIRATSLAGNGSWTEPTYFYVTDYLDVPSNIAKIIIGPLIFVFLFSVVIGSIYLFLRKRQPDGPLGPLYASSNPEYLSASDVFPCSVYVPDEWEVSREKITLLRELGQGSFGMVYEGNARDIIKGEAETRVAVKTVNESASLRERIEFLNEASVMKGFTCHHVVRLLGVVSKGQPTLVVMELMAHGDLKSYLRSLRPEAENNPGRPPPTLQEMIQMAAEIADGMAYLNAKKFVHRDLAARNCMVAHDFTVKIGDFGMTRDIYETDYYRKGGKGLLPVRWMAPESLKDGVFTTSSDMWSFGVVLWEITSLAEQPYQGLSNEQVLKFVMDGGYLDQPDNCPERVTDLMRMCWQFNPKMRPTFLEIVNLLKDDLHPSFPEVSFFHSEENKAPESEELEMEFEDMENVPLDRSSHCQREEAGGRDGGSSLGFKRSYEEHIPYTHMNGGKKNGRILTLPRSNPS

[3] = system: CCRF-CEM; experiment: Cytotoxicity against human CCRF-CEM cells; type: functional, cell-based
[4] = system: HL-60(TB); experiment: Cytotoxicity against human HL-60(TB) cells; type: functional, cell-based
[5] = system: K562; experiment: Cytotoxicity against human K562 cells; type: functional, cell-based
[6] = system: MOLT-4; experiment: Cytotoxicity against human MOLT4 cells; type: functional, cell-based
[7] = system: RPMI-8226; experiment: Cytotoxicity against human RPMI8226 cells; type: functional, cell-based
[8] = system: SR; experiment: Cytotoxicity against human SR cells; type: functional, cell-based
[9] = system: NRK; experiment: Growth inhibition of Rous sarcoma virus-transformed rat NRK cells; type: cell-based

Sequence of Tyrosine-protein kinase transforming protein Fps (P00530 whole entry): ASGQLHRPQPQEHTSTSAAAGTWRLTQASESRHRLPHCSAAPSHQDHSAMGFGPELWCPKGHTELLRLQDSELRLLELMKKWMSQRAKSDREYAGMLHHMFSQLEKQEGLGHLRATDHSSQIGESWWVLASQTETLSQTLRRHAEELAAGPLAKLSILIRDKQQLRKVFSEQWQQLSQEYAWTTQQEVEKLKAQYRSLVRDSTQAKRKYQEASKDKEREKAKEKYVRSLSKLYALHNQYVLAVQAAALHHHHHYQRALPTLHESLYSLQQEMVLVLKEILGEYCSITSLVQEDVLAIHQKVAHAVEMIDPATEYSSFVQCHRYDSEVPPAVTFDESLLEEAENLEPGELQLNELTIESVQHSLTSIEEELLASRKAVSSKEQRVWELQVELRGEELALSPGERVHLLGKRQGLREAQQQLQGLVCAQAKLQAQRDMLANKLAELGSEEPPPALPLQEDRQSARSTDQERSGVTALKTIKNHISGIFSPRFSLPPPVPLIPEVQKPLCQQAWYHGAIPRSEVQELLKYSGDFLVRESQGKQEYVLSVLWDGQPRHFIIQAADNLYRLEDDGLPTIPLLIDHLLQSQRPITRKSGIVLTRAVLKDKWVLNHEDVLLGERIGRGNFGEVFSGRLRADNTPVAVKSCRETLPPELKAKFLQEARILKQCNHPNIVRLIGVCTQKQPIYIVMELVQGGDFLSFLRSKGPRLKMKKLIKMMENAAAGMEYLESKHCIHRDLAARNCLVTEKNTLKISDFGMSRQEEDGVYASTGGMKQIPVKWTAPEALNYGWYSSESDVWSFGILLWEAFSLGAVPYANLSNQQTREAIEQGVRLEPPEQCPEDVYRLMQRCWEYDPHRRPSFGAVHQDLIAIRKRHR

O=c1c(O)c(-c2cc(O)c(O)c(O)c2)oc2cc(O)cc(O)c12 [MYRICETIN]
Ki [1]: 1800 nM
Ki [2]: 2600 nM

CO[C@H]1[C@@H](OC)C[C@H](C)[C@@H](OC)C2=CC(=O)C=C(NC(=O)/C(C)=C/C=C/[C@H](OC)[C@@H](OC(N)=O)/C(C)=C/[C@@H]1C)C2=O [HERBIMYCIN]
IC50 [3]: > 1000 nM
IC50 [4]: > 1000 nM
IC50 [5]: 95 nM
IC50 [6]: > 1000 nM
IC50 [7]: > 1000 nM
IC50 [8]: > 1000 nM

O=c1c(-c2ccc(O)c(O)c2)coc2cc(O)cc(O)c12 [OROBOL]
IC50 [9]: 4 µg/mL (≈ 14 µM)
